Experimental data as given in patent publication US20140057842A1, “COMPOSITIONS AND METHODS FOR CELL HOMING AND ADIPOGENESIS” (The Trustees of Columbia University in the City of New York, priority 2010, published 2014).

Assays:
[1] = tested on: hADSCs; assay: PPARγ expression of hADSCs followed for 28 days; assay type: cell-based, human; conditions: ADM plus 2 μM Pyrintegrin, compared with ADM alone
Method: (§1) Change in PPARγ expression of hADSCs were followed for 28 days. hADSCs were treated with: control medium; adipogenic differentiation medium (ADM); ADM plus 10 μM of Notch gamma Secretase Inhibitor (Inh1) (ADM+Inh1); ADM plus 10 μM of MAPK Inhibitor (Inh2) (ADM+Inh2); and ADM plus 10 μM of Inh1 and Inh2 (ADM+Inh1, 2).
PPARγ expression was measured for 28 days in hADSCs treated with: control medium; adipogenic differentiation medium (ADM); and ADM plus 2 μM of Pyrintegrin (ADM+Pyrintegrin).

[2] = tested on: hADSCs; assay: C/EBPα expression of hADSCs followed for 28 days; assay type: cell-based, human; conditions: ADM plus 2 μM Pyrintegrin, compared with ADM alone
Method: as §1, with “C/EBPα” for “PPARγ”
C/EBPα expression was measured for 28 days in hADSCs treated with: control medium; adipogenic differentiation medium (ADM); and ADM plus 2 μM of Pyrintegrin (ADM+Pyrintegrin).

[3] = tested on: hADSCs; assay: Lipid staining / brightfield images of hADSCs four weeks post-treatment; assay type: cell-based, human; conditions: ADM plus Pyrintegrin, compared with ADM alone
Method: Brightfield images were produced four weeks post-treatment of hADSCs with: (A) ADM; (B) ADM+Inh1; (C) ADM+Inh2; and (D) ADM+Inh1, 2 (see e.g., FIG. 6 A-D).
Lipid staining was performed four weeks post-treatment of hADSCs with: (A) ADM; and (B) ADM plus Pyrintegrin (ADM+Pyrintegrin).

[4] = tested on: hADSCs; assay: Adiponectin content of hADSCs at two and four weeks post-treatment; assay type: cell-based, human; conditions: ADM plus 2 μM Pyrintegrin
Method: (§2) At two and four weeks post-treatment, Adiponectin content was measure in hADSCs treated with: control medium; adipogenic differentiation medium (ADM); ADM plus 10 μM of Notch gamma Secretase Inhibitor (Inh1) (ADM+Inh1); ADM plus 10 μM of MAPK Inhibitor (Inh2) (ADM+Inh2), and ADM plus 10 μM of Inh1 and Inh2 (ADM+Inh1, 2).
At two and four weeks post-treatment, Adiponectin content was measured in hADSCs treated with: control medium; adipogenic differentiation medium (ADM); and ADM plus 2 μM of Pyrintegrin (ADM+Drug).

[5] = tested on: hADSCs; assay: Leptin content of hADSCs at two and four weeks post-treatment; assay type: cell-based, human; conditions: ADM plus 2 μM Pyrintegrin
Method: as §2, with “Leptin” for “Adiponectin”, “measured” for “measure”, “(ADM+Inh2);” for “(ADM+Inh2),”
At two and four weeks post-treatment, Leptin content was measured in hADSCs treated with: control medium; adipogenic differentiation medium (ADM); and ADM plus 2 μM of Pyrintegrin (ADM+Drug).

[6] = tested on: hADSCs; assay: Glycerol content of hADSCs at two and four weeks post-treatment; assay type: cell-based, human; conditions: ADM plus 2 μM Pyrintegrin
Method: At two and four weeks post-treatment, Glycerol content was measured in hADSCs treated with: control medium; adipogenic differentiation medium (ADM); and ADM plus 2 μM of Pyrintegrin (ADM+Drug).

[7] = tested on: BMP pathway; assay: Western blot analysis of hADSCs 1-hour post-treatment, phosphorylation of Smad1/5/8; assay type: cell-based, human; conditions: 2 μM with ADM or alone
Method: (§3) Western blot analysis was performed 1-hour post-treatment in hADSCs treated with: control medium (Control); adipogenic differentiation medium (ADM); ADM plus 2 μM of Pyrintegrin (ADM+Drug); and Pyrintegrin alone (Drug).

[8] = tested on: TGFβ/Activin pathway; assay: Western blot analysis of hADSCs 1-hour post-treatment, TGFβ/Activin pathway; assay type: cell-based, human; conditions: 2 μM with ADM or alone
Method: as §3

[9] = tested on: hADSCs; assay: PPARγ and C/EBPα gene expression of hADSCs four days post-treatment with Pyrintegrin without ADM; assay type: cell-based, human; conditions: control medium plus 2 μM or 10 μM Pyrintegrin
Method: PPARγ and C/EBPα gene expression was measured at four days post-treatment in hADSCs treated with: control medium (Control); control medium plus 2 μM of Pyrintegrin (Control+Drug 2 μM); control medium plus 10 μM of Pyrintegrin (Control+Drug 10 μM) and adipogenic medium (ADM).

[10] = tested on: adipocyte stem cells (ASCs); assay: Adipogenesis of adipocyte stem cells treated with EGFR antagonist (marker expression, glycerol and leptin contents); assay type: cell-based; conditions: 50 ng/mL in adipogenic medium
From the text: Together, the adipogenic differentiation capacity of ASCs was restored to a similar level to without HSC co-culture.

Row | Molecule | PPARγ expression in hADSCs [1] | C/EBPα expression in hADSCs [2] | lipid accumulation in hADSCs [3] | secretion of Adiponectin cytokine by hADSCs [4] | secretion of Leptin cytokine by hADSCs [5] | secretion of Glycerol by hADSCs [6] | phosphorylation of Smad1/5/8 (BMP pathway) [7] | TGFβ/Activin pathway inhibition [8] | adipogenic differentiation of hADSCs (PPARγ and C/EBPα gene expression) [9] | adipogenesis of ASCs on addition of EGF to the adipogenic medium [10]
1 | O=S(=O)(NCC1CC1)c1ccc(Nc2nccc(N3CCCc4cc(O)ccc43)n2)cc1 [Pyrintegrin, N-(Cyclopropylmethyl)-4-(4-(6-hydroxy-3,4-dihydroquinolin-1-(2H)-yl)pyrimidin-2-ylamino)benzenesulfonamide] | more potent in inducing PPARγ expression | more potent in inducing C/EBPα expression | more potent in inducing lipid accumulation | enhanced the secretion of Adiponectin cytokine | enhanced the secretion of Leptin cytokine | enhanced the secretion of Glycerol | prevents the phosphorylation of Smad1/5/8 | does not target the TGFβ/Activin pathway | can induce hADSCs towards an adipogenic differentiation pathway | 
2 | EGF: EGF added at 50 ng/mL to the adipogenic medium (NSDSECPLSHDGYCLHDGVCMYIEALDKYACNCVVGYIGERCQYRDLKWWELR; UniProt P01133 971-1023, looked up) |  |  |  |  |  |  |  |  |  | further inhibited adipogenesis
